Source: US20220000816A1, “COMPOSITION AND METHOD OF INHIBITING ACTIVITY OF MINERALOCORTICOID RECEPTOR BY APPLYING IT TO THE SKIN” (AMOREPACIFIC CORPORATION, priority 2018, published 2022)

System: mineralocorticoid receptor
Experiment: MMTV-luciferase reporter assay of mineralocorticoid receptor activity in CV-1 cells stimulated with dexamethasone
Format: cell-based
Details: 10 μg/ml compound, after 2 hours dexamethasone (1 nM), cultivated 24 hours, normalized to Renilla luciferase, FIG. 2
Method: RNA was separated from a CV-1 cell and PCR was performed using reverse transcriptase, so gene expressions of a glucocorticoid receptor (GR) and a mineralocorticoid receptor (MR) were confirmed, and the results are shown in FIG. 1.
The CV-1 cell was cultivated in a 24-well flat incubator. After 24 hours, the incubating medium was replaced with a 10% charcoal dextran-treated FBS-DMEM, and then after 4 hours, mixed DNA of a MMTV-luciferase reporter plasmid and an internal control group of a pRL-SV-40 plasmid was transfected using TransFast reagent (Promega). After 24 hours, it was treated with 10 μg/ml of the compound (Ramidus AB) represented by Chemical Formula 1-1, and after 2 hours, was treated with dexamethasone (1 nM), and then cultivated for 24 hours. The luciferase activity in the cell lysate was measured using a Dual-Luciferase Reporter Assay System (Promega), and the transfection efficiency was normalized by revising Renilla luciferase activity to measure a relative luciferase activity, and the results are shown in FIG. 2.

CC(C)c1ccc2c(c1)CC[C@H]1[C@@H](C)C(C(=O)O)CC[C@]21C (stereo partly shown) [Chemical Formula 1-1]
relative luciferase activity (activity of the mineralocorticoid receptor by dexamethasone): deteriorated activity of the mineralocorticoid receptor
